Experimental findings from US9232799B2, “N-[(het)arylethyl)] pyrazole(thio)carboxamides and their heterosubstituted analogues” (BAYER INTELLECTUAL PROPERTY GMBH, priority 2010, dated 2016) are described below.

For series [1], the system named is Botrytis cinerea. Briefly: In vivo preventive test on Botrytis cinerea (beans). The source says: To test for preventive activity, young plants are sprayed with the preparation of active compound. After the spray coating has dried on, 2 small pieces of agar covered with growth of Botrytis cinerea are placed on each leaf.
A short description of series [2]: logP by HPLC on reversed-phase column (C 18), EEC Directive 79/831 Annex V.A8. It counts as physicochemical. The protocol:
In table 1, the logP values were determined in accordance with EEC Directive 79/831 Annex V.A8 by HPLC (High Performance Liquid Chromatography) on a reversed-phase column (C 18), using the method described below: Temperature: 40° C.; […]

Series [3] has as its system Sphaerotheca fuliginea. Briefly: In vivo preventive test on Sphaerotheca fuliginea (cucumber). The conditions noted are these: 500 ppm of active ingredient, evaluated 7 days after inoculation. The source says:
One day after this treatment, the plants are inoculated with an aqueous spore suspension of Sphaerotheca fuliginea.

In series [4] the test system is Alternaria solani. Briefly: In vivo preventive test on Alternaria solani (tomato). The settings on record: 500 ppm of active ingredient, evaluated 7 days after inoculation. The source says:
One day after this treatment, the plants are inoculated with an aqueous spore suspension of Alternaria solani.

Series [5] has as its system Pyrenophora teres. Briefly: In vivo preventive test on Pyrenophora teres (barley). The settings on record: 500 ppm of active ingredient, evaluated 7-9 days after inoculation. The source says: One day after this treatment, the plants are inoculated with an aqueous spore suspension of Pyrenophora teres.
The subject of series [6] is Puccinia triticina. Briefly: In vivo preventive test on Puccinia triticina (wheat). The settings on record: evaluated 8 days after inoculation; for Efficacy: dose 500 ppm of active ingredient.
The subject of series [7] is aflatoxines production. Nature of the series: microbe, parasite or virus in culture. Format: cell-based, Aspergillus parasiticus. The conditions noted are these: 50 μM.
Series [8] has as its system Fusarium graminearum. Briefly: microbe, parasite or virus in culture. Format: cell-based. The settings on record: 50 μM.
For series [9], the system named is Leptosphaeria nodorum. Briefly: In vivo preventive test on Leptosphaeria nodorum (wheat). The conditions noted are these: 500 ppm of active ingredient, evaluated 7-9 days after inoculation. The source says:
One day after this treatment, the plants are inoculated with an aqueous spore suspension of Leptosphaeria nodorum.

In series [10] the test system is Septoria tritici. Briefly: In vivo preventive test on Septoria tritici (wheat). The conditions noted are these: 500 ppm of active ingredient, evaluated 21 days after inoculation. The source says:
(§1) To test for preventive activity, young plants are sprayed with the preparation of active compound or active compound combination at the stated rate of application.

The test system of series [11] is Blumeria graminis f.sp. hordei. Briefly: In vivo preventive test on Blumeria graminis (barley). The settings on record: 500 ppm of active ingredient, evaluated 7 days after inoculation.
From the text: as §1

Where [12] appears, read: Botrytis cinerea, 48 h, preventive, beans, 500 ppm of active ingredient, lesion size 2 days after inoculation, read-out: Efficacy.

Values joined by “and” are separate entries in the source; they are usually repeats but may differ in a detail not shown here. Identical values can stand only once. Like-named read-outs stand apart in the source and are kept apart here.

For `Cn1cc(C(=O)NCCc2ccc(Cl)cc2Cl)c(C(F)F)n1` [compound CMP3, N-[2-(2,4-dichlorophenyl)ethyl]-3-(difluoromethyl)-1-methyl-1H-pyrazole-4-carboxamide, reference compound], the pest or weed control at 100 ppm in series [1] (Botrytis cinerea, 48 h, preventive, beans, 100 ppm of active ingredient, lesion size 2 days after inoculation, read-out: Efficacy) was 0%.

A word on the logP: it is the decadic logarithm of the partition coefficient of the neutral form, usually between octanol and water. A high value points to higher lipophilicity. In the case of `CC(Cc1cc(Cl)ccc1Cl)NC(=O)c1c(C(F)F)nn(C)c1Cl` (stereo not shown) [Example 93], in [2], the log partition coefficient (logP) is on record as 3.53. Moreover, the Efficacy in [3] stood at 95%; in series [4], 100%; in [5] it was 100%; in series [6], 70%. For the same molecule, the “% Inhibition of Aflatoxin at 50 μM” value in series [7] was 100%. Besides, the “% Inhibition of fungal growth at 50 μM” value in [8] was determined as 100%.

Turning to `Cc1nn(C)c(F)c1C(=O)NC(C)Cc1ncc(C(F)(F)F)cc1Cl` (stereo not shown) [compound CMP6, N-{1-[3-chloro-5-(trifluoromethyl)pyridin-2-yl]propan-2-yl}-5-fluoro-1,3-dimethyl-1H-pyrazole-4-carboxamide, reference compound], the pest or weed control at 500 ppm in series [1] (setting [12]) was determined as 0%.

For the molecule `Cn1nc(C(F)F)c(C(=O)N(C[Si](C)(C)c2ccc3ccccc3c2)C2CC2)c1F` [Example 245], the logP in series [2] is listed as 4.36. Further, the Efficacy came out at 100% in [3]; 100% in series [4]; 100% in [5]; 100% in [9]; 95% in series [6]. The “% Inhibition of Aflatoxin at 50 μM” value in series [7] is listed as 100%. Further, the “% Inhibition of fungal growth at 50 μM” value in series [8] came out at 100%.

`CC(Cc1cc(Cl)cc(Cl)c1)NC(=O)c1c(C(F)F)nn(C)c1F` (stereo not shown) [Example 102] registered a logP in [2] of 3.48. Further, the Efficacy in series [4] worked out at 95%; in [5], 100%; in series [6] it was 70%. Besides, the “% Inhibition of Aflatoxin at 50 μM” value in series [7] is given as 100%. Moreover, the “% Inhibition of fungal growth at 50 μM” value in series [8] was 100%.

For the molecule `Cn1cc(C(=O)N[C@H]2C[C@H]2c2ccc(Cl)cc2)c(C(F)F)n1` [1.001 from WO-2007/134799, N-[(1S,2S-1R′,2R)-2-(4-chlorophenyl)cyclopropyl]-3-(difluoromethyl)-1-methyl-1H-pyrazole-4-carboxamide, reference compound], the Efficacy in series [1] (preventive, beans, 100 ppm of active ingredient, lesion size 2 days after inoculation) was 8%; in series [1] (preventive, beans, 100 ppm of active ingredient, lesion size 2 days after inoculation, listed as 1.001), “less than 10%”; in series [1] (preventive, beans, 500 ppm of active ingredient, lesion size 2 days after inoculation) it was 89%; in [1] (preventive, beans, 500 ppm of active ingredient, lesion size 2 days after inoculation, listed as 1.001), “at least 85%”.

In [2], `Cn1nc(C(F)F)c(C(=O)N(C[Si](C)(C)c2ccccc2)C2CCCCC2)c1F` [Example 229] had a logP of 4.86. In addition, the Efficacy in series [4] was determined as 90%; in series [5] it was 70%; in [6], 80%.

In series [2], `CN(CCc1cc(Cl)ccc1Cl)C(=O)c1c(C(F)F)nn(C)c1Cl` [Example 95] came in with a logP of 3.33. Also, the Efficacy turned out to be 100% in series [4], 100% in series [5] and 70% in series [6]. Moreover, the “% Inhibition of Aflatoxin at 50 μM” value in series [7] came out at 100%. In addition, in series [8], the “% Inhibition of fungal growth at 50 μM” value worked out at 100%.

Take `Cn1cc(C(=O)N(C2CC2)C2CCCC2c2ccc(Cl)cc2Cl)c(C(F)F)n1` (stereo not shown) [7 from WO-2010/09466, N-cyclopropyl-N-[2-(2,4-dichlorophenyl)cyclopentyl]-3-(difluoromethyl)-1-methyl-1H-pyrazole-4-carboxamide, reference compound]: the “Efficacy (protection)” value in series [6] (preventive, 500 ppm of active ingredient) is on record as “less than 5%”.

Turning to `CN(CCc1ccc(F)cc1)C(=O)c1c(C(F)F)nn(C)c1Cl` [Example 24], the logP in series [2] is reported as 2.66. The results for the Efficacy in series [4], in series [5] and in series [6] were 100%, 95% and 80%, respectively. Also, the “% Inhibition of Aflatoxin at 50 μM” value in [7] was 100%. Moreover, in series [8], the “% Inhibition of fungal growth at 50 μM” value amounted to 88%.

For the molecule `CC(Cc1ccccc1Cl)NC(=O)c1c(C(F)F)nn(C)c1Cl` (stereo not shown) [Example 33], the logP in series [2] is 3.15. The Efficacy in series [3] is 93%; in series [4], 100%; in [5], 100%; in series [6], 80%. Besides, in series [7], the “% Inhibition of Aflatoxin at 50 μM” value is 100%. The “% Inhibition of fungal growth at 50 μM” value in series [8] is on record as 100%.

In series [2], `CC(c1ccccc1Cl)C(C)N(C(=O)c1c(C(F)F)nn(C)c1F)C1CC1` (stereo not shown) [Example 41] displayed a logP of 3.87. In addition, the Efficacy turned out to be 74% in [3]; 100% in series [4]; 100% in [5]; 93% in series [10]; 100% in series [11]; 95% in series [9]. In addition, the “% Inhibition of Aflatoxin at 50 μM” value in series [7] came out at 100%. Moreover, in series [8], the “% Inhibition of fungal growth at 50 μM” value is 100%.

Turning to `CC(Cc1cccc(Oc2ccccc2)c1)NC(=O)c1c(C(F)F)nn(C)c1Cl` (stereo not shown) [Example 147], in series [2], the logP was found to be 3.80. The Efficacy in [4] worked out at 100%; in series [5], 100%; in series [6], 70%. Besides, in [7], the “% Inhibition of Aflatoxin at 50 μM” value was 93%. In addition, the “% Inhibition of fungal growth at 50 μM” value in [8] turned out to be 77%.

In turn, `COC(CNC(=O)c1c(C(F)F)nn(C)c1F)c1cc(Cl)cc(Cl)c1` (stereo not shown) [Example 107] came in with a logP in [2] of 3.33. The Efficacy is listed as 90% in series [4], 95% in series [5], 86% in series [10] and 78% in [11]. In addition, in [7], the “% Inhibition of Aflatoxin at 50 μM” value worked out at 98%. In addition, the “% Inhibition of fungal growth at 50 μM” value in series [8] stood at 74%.

As to `Cn1nc(C(F)F)c(C(=O)NC[Si](C)(C)c2ccc(Cl)cc2Cl)c1F` [Example 240], the logP in series [2] turned out to be 4.06. Also, the Efficacy in series [4] is 100%; in series [5], 100% and 95%; in series [9] it was 95%; in series [6] it was 100%. The “% Inhibition of Aflatoxin at 50 μM” value in series [7] amounted to 100%. In series [8], the “% Inhibition of fungal growth at 50 μM” value was determined as 84%.

The molecule `Cn1nc(C(F)F)c(C(=O)NC[Si](C)(C)c2ccc(Cl)cc2Cl)c1Cl` [Example 239] showed a logP in series [2] of 4.25. For the same molecule, the Efficacy in series [4] is 90%; in series [6], 70%.

Take `Cn1nc(C(F)F)c(C(=O)NC[Si](C)(C)c2ccccc2Cl)c1Cl` [Example 232]: the logP in series [2] was 3.69. Also, the Efficacy in series [6] was 95%.

Take `Cc1nn(C)c(F)c1C(=O)NCCc1ncc(C(F)(F)F)cc1Cl` [J-1 from WO-2004/074280, N-{2-[3-chloro-5-(trifluoromethyl)pyridin-2-yl]ethyl}-5-fluoro-1,3-dimethyl-1H-pyrazole-4-carboxamide, reference compound]: the Efficacy in [3] was 16%; in [3] (listed as J-1) it was “less than 20%”; in series [1] (preventive, beans, 500 ppm of active ingredient, lesion size 2 days after inoculation, listed as J-1), “no protection”. Further, the pest or weed control at 500 ppm in series [1] (setting [12]) was determined as 0%.

Turning to `CC(Cc1cc(Cl)cc(Cl)c1)NC(=O)c1c(C(F)F)nn(C)c1Cl` (stereo not shown) [Example 104], in [2], the logP stood at 3.67. Besides, the Efficacy in series [3] came to 86%; in [4], 95%; in series [5], 100%; in [6] it was 70%. Also, the “% Inhibition of Aflatoxin at 50 μM” value in [7] came to 100%. Also, the “% Inhibition of fungal growth at 50 μM” value in [8] is 98%.

For `Cc1nn(C)c(F)c1C(=O)N(C[Si](C)(C)c1cc(Cl)cc(Cl)c1)C1CC1` [compound CMP2, N-cyclopropyl-N-{[(3,5-dichlorophenyl)(dimethyl)silyl]methyl}-5-fluoro-1,3-dimethyl-1H-pyrazole-4-carboxamide, reference compound], the pest or weed control at 500 ppm in [1] (Botrytis cinerea, 48 h, dose 500 ppm of active ingredient, table K10, read-out: Efficacy) is 10%; in [1] (setting [12]), under 10%.

With `CC(Cc1ccc(Cl)cc1)N(C(=O)c1cn(C)nc1C(F)F)C1CC1` (stereo not shown) [F-3 from WO-2007/060164, N-[1-(4-chlorophenyl)propan-2-yl]-N-cyclopropyl-3-(difluoromethyl)-1-methyl-1H-pyrazole-4-carboxamide, reference compound], the pest or weed control at 500 ppm in [1] (setting [12]) was determined as 0%. Further, the Efficacy entry in series [1] (preventive, beans, 500 ppm of active ingredient, lesion size 2 days after inoculation, listed as F-3) is “no protection”.

Turning to `CC(Cc1c(F)cccc1Cl)N(C(=O)c1c(C(F)F)nn(C)c1Cl)C1CC1` (stereo not shown) [Example 119], in series [2], the logP is recorded as 3.94. The Efficacy in series [4] was found to be 100%; in [5] it was 100%; in [6], 80%. Moreover, the “% Inhibition of Aflatoxin at 50 μM” value in [7] was found to be 95%. Moreover, in series [8], the “% Inhibition of fungal growth at 50 μM” value amounted to 79%.
